# Experimental data published in patent US6670339B1, “Use of sulfated oligosaccharides in lowering blood triglyceride levels” (The Australian National University, priority 1997, dated 2003).
# Assays:
# [1] = tested on: blood triglyceride levels; test: Blood triglyceride levels in male and female Lewis rats after 7 days of twice daily s.c. injection; assay type: in vivo
# Method: 2. […] Thus, on day 0 the rats were weighed and placed into three groups of the same sex, containing three rats each based on weight. On every subsequent morning their weights were recorded. Each morning beginning on day 1 at approximately 8.00 AM and each evening at approximately 8.00 PM the rats were injected in the following manner. The control groups received sterile normal saline solution 100 μl s.c. The first treatment groups of male and female rats received the sulfated mannopentaose phosphate, at a dose of 10 mg/kg s.c. in 100 μl of sterile saline solution (total daily dose 20 mg/kg). The second treatment groups of male and female rats received the sulfated mannopentaose phosphate at a dose of 50 mg/kg s.c. (total daily dose 100 mg/kg). This injection routine was repeated for a total of 7 days.
# On morning of day 8 of the experiment, the rats were anaesthetised and blood was taken for triglyceride analysis. Triglyceride levels were determined using a commercially available assay kit (Sigma, Triglyceride—GPO-Tinder). […] Thus, blood triglyceride levels in the male control group averaged 1.7±0.21 mmol/L, in the […] male treatment group averaged 0.9±0.2 mmol/L and in the 100 mg/kg/day male treatment group averaged 0.3±0.0 mmol/L. Blood triglyceride levels in the female control group averaged 1.13±0.19 mmol/L, and in the 20 mg/kg/day female treatment group averaged 0.5±0.0 mmol/L and in the 100 mg/kg/day female treatment group averaged 0.17±0.03 mmol/L.
# [2] = tested on: blood triglyceride levels; test: Blood triglyceride levels in mice under continuous infusion by mini-osmotic pump; assay type: in vivo, CBA/h female mice
# Method: Thus, 10 CBA/h female mice 8-10 weeks old were weighed and divided into two groups of 5 mice each based on weight. Mice in the control group were implanted subcutaneously with a mini-osmotic pump (Alzet 2001) containing sterile normal saline solution. Mice in the treatment group were implanted subcutaneously with a mini-osmotic pump containing the sulfated mannopentaose phosphate which delivered the sulfated mannopentaose phosphate at a dose of 50 mg/kg/day. At the end of the 7 day period over which the mini-osmotic pumps delivered their payload, blood (50 μl) was collected from the tail veins of mice from both groups and assayed for triglycerides (Sigma, Triglyceride—GPO-Trinder). Triglyceride levels in the blood from mice in the control group averaged 1.49±0.23 mM and triglyceride levels in the blood of mice in the treatment group averaged 1.01±0.07 mM. One week following the treatment period, blood triglyceride levels were measured again in each group and levels in the treatment group had returned to normal, or those approximating the control group. Thus, at this point levels of triglycerides in the blood of mice in the control group averaged 1.29±0.08 mM and levels of triglycerides in the blood of mice in the treatment group averaged 1.27±0.06 mM.
# [3] = tested on: serum triglyceride levels; test: Time course of serum triglyceride levels in mice after a single s.c. dose; assay type: in vivo, CBA/h female mice; settings: single 50 mg/kg s.c.
# Method: FIG. 1. Time course of the effect of a single s.c. dose (50 mg/kg) of sulfated mannopentaose phosphate (PI-88) on serum triglyceride levels, as measured by the Sigma triglyceride assay. Data presented as group means±SEM (n=4).
# Thus, 32 CBA/h female mice 8-10 weeks old were weighed and placed into eight groups, containing four mice each based on weight. The control group was injected with sterile normal saline solution 100 μl s.c. All the treatment groups were injected with sulfated mannopentaose at a dose of 50 mg/kg s.c. in a volume of 100 μl of sterile normal saline solution. At 0.5, 1, 2, 3, 6, 24 and 48 hours following injection mice were anaesthetised and blood was collected via cardiac puncture and allowed to clot and serum triglyceride levels were measured using a commercially available kit (Sigma, Triglyceride—GPO-Trinder).
# [4] = tested on: serum triglyceride levels; test: Serum triglyceride lowering by glycosaminoglycans and sulfated oligosaccharides in mice; assay type: in vivo, CBA/h female mice; settings: 50 mg/kg s.c., 2 hours after injection
# Method: FIG. 3. Ability of different glycosaminoglycans and sulfated oligosaccharides to lower serum triglyceride levels in CBA mice. Compounds were injected s.c. at a dose of 50 mg/kg, blood samples taken 2 hours later and assayed for triglyceride content. Each histogram is the mean±SEM (n=3) for each treatment.
# Mice (CBA/h female mice 8-10 weeks old) were injected s.c. with a range of glycosaminoglycans and sulfated oligosaccharides at a dose of 50 mg/kg and 2 hours later mice were anaesthetised, blood was collected via cardiac puncture and allowed to clot and serum triglyceride levels measured using a commercially available kit (Sigma, Triglyceride—GPO-Trinder). […] The only other compound with some activity was suramin, a sulfonated compound which has previously been used as an angiogenesis and heparanase inhibitor.
# [5] = tested on: blood triglyceride levels; test: Blood triglyceride levels in Fisher rats after 7 days of twice daily s.c. injection; assay type: in vivo; settings: female Fisher rats, blood on day 8, control 1.43±0.13
# Method: 1. Nine 10 week old female Fisher rats were treated with the sulfated mannopentaose phosphate or saline over a 7 day period as follows. On […] the rats were weighed and placed into three groups of three rats based on weight. On every subsequent morning their weights were recorded. Each morning beginning on day 1 at approximately 8.00 AM and evening at approximately 8.00 PM the rats were injected in the following manner. The control group received sterile normal saline solution 100 μl s.c. One treatment group received the sulfated mannopentaose phosphate at a dose of 10 mg/kg s.c. in an injection volume of 100 μl of sterile saline solution. Thus, each rat in this group received a total daily dose of 20 mg/kg. Animals in the second treatment group received the sulfated mannopentaose phosphate at a dose of 50 mg/kg s.c. in an injection volume of 100 μl of sterile saline solution. Thus, each rat in this group received a total daily dose of 100 mg/kg. This injection routine was repeated for a total of 7 days.
# On the morning of day 8 of the experiment, the rats were anaesthetised and blood was taken for triglyceride analysis. Triglyceride levels were determined using a commercially available assay kit (Sigma, Triglyceride—GPO-Trinder). […]
substance,measurement,setting,value
sulfated mannopentaose phosphate [PI-88 (15 SO4/molecule)],blood triglyceride levels,"[1]; female Lewis rats, 20 mg/kg/day s.c., blood on day 8, control 1.13±0.19",0.5 ± 0.0 mmol/L
same,blood triglyceride levels,"[1]; female Lewis rats, 100 mg/kg/day s.c., blood on day 8, control 1.13±0.19",0.17 ± 0.03 mmol/L
same,blood triglyceride levels,"[1]; male Lewis rats, 100 mg/kg/day s.c., blood on day 8, control 1.7±0.21",0.3 ± 0.0 mmol/L
same,blood triglyceride levels,"[1]; male Lewis rats, 'mg/kg/day' group (lower dose), s.c. twice daily, blood on day 8, control 1.7±0.21",0.9 ± 0.2 mmol/L
same,triglyceride levels in the blood,"[2]; 50 mg/kg/day by s.c. mini-osmotic pump, end of 7 day period, control 1.49±0.23",1.01 ± 0.07 mM
same,triglyceride levels in the blood,"[2]; one week following the 7 day infusion of 50 mg/kg/day, control 1.29±0.08",1.27 ± 0.06 mM
same,time to significant reduction in blood triglyceride levels,[3],≤ 0.5 h
same,time until which triglyceride levels continued to fall (maximum lowering),[3],2 h
same,"triglyceride levels versus controls, in words",[3]; 6 hours after injection,significantly lower than controls
same,"triglyceride levels versus controls, in words",[3]; 24 hour time point,returning to normal
same,"effect on serum triglyceride levels, in words",[4],lowered serum triglyceride levels
same,blood triglyceride levels,[5]; 20 mg/kg/day s.c. (10 mg/kg twice daily),0.3 ± 0.12 mmol/L
same,blood triglyceride levels,[5]; 100 mg/kg/day s.c. (50 mg/kg twice daily),0.1 ± 0.0 mmol/L
